From US5498427A, “Solutions for the perfusion, preservation and reperfusion of organs” (Pasteur Merieux Serums et Vaccines, priority 1990, dated 1996)

Assays:
[1] = tested on: isolated hearts from Sprague-Dawley rats; assay: Test of solutions containing NAC on isolated rat heart preparations (Langendorff, arrest, 5 h cold storage, 1 h ischemia, 1 h reperfusion); settings: for Left ventricular pressure developed, Reperfusion: after ischemia and reperfusion; for Left ventricular pressure developed, Reperfusion / Coronary flow rate, Reperfusion / Coronary flow rate, Normal / Left ventricular pressure developed, Normal: N = 10; for Coronary flow rate, Normal / Left ventricular pressure developed, Normal: pre-ischaemic reference value
Method: Fifty isovolumic preparations of isolated hearts from Sprague-Dawley rats weighing 300 grams were used, the hearts being connected rapidly to a non-recirculating Langendorff perfusion column to establish a retrograde perfusion using an oxygenated (95% O2, 5% CO2) Krebs-Henseleit buffer, to establish a retrograde perfusion at a pressure of 100 cm of water. The left ventricular pressure, its derivative and the end-diastolicpressure were recorded continuously. The coronary flow rate was measured by noting the venous coronary flow rate. Left ventricular stimulation was maintained at a frequency of 320/min.
After a twenty-minute monitoring period, thirty hearts were arrested by perfusion using the preservation and perfusion solution at 4° C., and then rapidly placed in glass containers filled with the same solution and surrounded by ice. The hearts were maintained therein for five hours, with a mean myocardial temperature of 2° C. at the end of storage. The hearts were then reconnected to the perfusion circuit and subjected to an additional ischemia for one hour at between 15° and 18° C. The hearts were divided into three groups, including a control group which received a first perfusion of a solution which was identical but devoid of NAC on establishment of the post-storage ischemia and an additional perfusion of 25 ml of this solution immediately before unclamping the aorta, the perfusions being performed at 4° C. and 28° C., respectively. […] In the third group, a solution containing NAC at 28° C. was distributed in a single dose at the end of the ischemia. In this latter group, the NAC concentration was adjusted to 0.072 M so that all the hearts treated received the same amount of this substance, that is to say approximately 1.80 millimoles. The bottles containing the solutions as well as the connecting tubes were protected from light in order to avoid oxidation. In all three groups, the perfusions after storage were delivered at a pressure of 30 cm of water. After a period of ischemia of six hours, the hearts were reperfused for one hour at 37° C.
For all three groups, the stimulation was stopped and the left intraventricular balloon deflated during the period of ischemia so as to simulate clinical conditions. After reperfusion, stimulation was reestablished. Isovolumetric measurements of the coronary flow rate, the left ventricular pressure, its first derivative and the telediastolic pressure were performed three times during the monotoring period and then at 5, 30, 45 and 60 minutes during the reperfusion.

[2] = hypothermic storage conditions in usual bags, periods up to 3 hours
From the text: In one embodiment the solution is stored, as a whole, in the container.

[3] = Group II, multidose solution enriched with NAC, versus Groups I and III
[4] = Second group, (0.04 M) NAC multidose
[5] = Third group, (0.07 M) NAC single dose at end of ischemia

| Structure (SMILES) | Left ventricular diastolic pressure: postischemic contracture ([1]; Group II, multidose solution enriched with NAC) | Left ventricular pressure developed throughout the reperfusion period [1, 3] | Postischemic derivative dP/dt [1, 3] | Left ventricular diastolic pressure: compliance ([1]; Group III, reperfusion supplemented with NAC only at end of ischemia) | Left ventricular pressure loss after ischemia and reperfusion ([1]; Group III, reperfusion supplemented with NAC only at end of ischemia, versus Group II) | Left ventricular pressure developed, Reperfusion [1, 4] | Coronary flow rate, Reperfusion ([1]; Second group, (0.04 M) NAC multidose, after sixty minutes of reperfusion) | Coronary flow rate, Normal [1, 4] | Left ventricular pressure developed, Normal [1, 4] | Left ventricular pressure developed, Reperfusion [1, 5] | Coronary flow rate, Reperfusion ([1]; Third group, (0.07 M) NAC single dose at end of ischemia, after sixty minutes of reperfusion) | Coronary flow rate, Normal [1, 5] | Left ventricular pressure developed, Normal [1, 5] | Recovery of coronary flow rate ([1]; groups treated with NAC versus control, after sixty minutes of reperfusion) | Rate of glutathione oxydation on storage [2] |
| --- | --- | --- | --- | --- | --- | --- | --- | --- | --- | --- | --- | --- | --- | --- | --- |
| CC(=O)N[C@@H](CS)C(=O)O [NAC, N-acetylcysteine] | significantly decreased | significantly greater pressure was developed | largest values | significant loss of compliance | significantly greater pressure losses | 101.5 ± 3.4 mm Hg | 12.1 ± 0.5 mL/min | 14.8 ± 0.6 mL/min | 126.4 ± 2.8 mm Hg | 69.8 ± 3.6 mm Hg | 13.4 ± 0.4 mL/min | 16.0 ± 0.5 mL/min | 129.7 ± 2.0 mm Hg | best recovery of coronary flow rate | – |
| N[C@@H](CCC(=O)N[C@@H](CS)C(=O)NCC(=O)O)C(=O)O [glutathione] | – | – | – | – | – | – | – | – | – | – | – | – | – | – | only minimal rate of glutathione oxydation |
